According to patent US11401255B2, “Small molecule activators of Parkin enzyme function” (Mayo Foundation for Medical Education and Research, priority 2016, dated 2022):

Tested on: HeLa mtKeima cells
Assay: Mitophagy assay (mtKeima HCI)
Assay type: cell-based, human
Conditions: 5 μM, low-dose CCCP
Protocol: HCI in 384-well plates was used to calculate the ratio of acidic to neutral mtKeima. Upon treatment with 10 μM CCCP, there was significant increase of the mtKeima ratio. Pre-treatment with compound 4 (dashed line, here shown 5 μM of compound 4) induced this also at low-dose CCCP concentrations while low dose CCCP alone (solid line) had only little effect on the ratio of acidic to neutral mtKeima.
HeLa mtKeima cells were pre-treated for 2 h with 12 different doses of Compounds 1, 2, 3, 4, and 31 before low-dose CCCP was added (3 μM final concentration). 10 μM CCCP was added to positive control wells. Cells were imaged live after 4 h and 8 h of CCCP. Values were normalized to the positive and negative (3 μM CCCP) control values for each time point. Curve fitting was used to calculate EC50 values.
To confirm mitophagy, HeLa cells expressing the pH-sensitive, mitochondria-targeted reporter mitoKeima46 were employed. A characteristic shift in the excitation wavelength of mitoKeima upon lysosomal fusion was used to determine mitochondrial turnover using […]. For mitoKeima experiments (Kim et al., Mol. Neurodegen. (2016) 11:55), cells were seeded in DMEM media lacking phenol red […]. Hoechst counterstain was added as a 5× stock in 5 μL volume. […] Segmentation of cells was performed as above and for each region of interest the ratio of acidic and neutral mitoKeima was calculated. […]

O=C(Cn1ccnc1-c1ccccn1)Nc1ccc(-c2ccccc2)cc1 [Compound 4]
mitophagy flux (ratio of acidic to neutral mtKeima): enhanced mitophagy flux
